SMILES strings stand for the structures. Read-outs that look alike come from different tables or passages of the source.

Test [1] deals with T1, 5-HT1A receptor (Homo sapiens, UniProt P08908).
T1 sequence (P08908 1-422): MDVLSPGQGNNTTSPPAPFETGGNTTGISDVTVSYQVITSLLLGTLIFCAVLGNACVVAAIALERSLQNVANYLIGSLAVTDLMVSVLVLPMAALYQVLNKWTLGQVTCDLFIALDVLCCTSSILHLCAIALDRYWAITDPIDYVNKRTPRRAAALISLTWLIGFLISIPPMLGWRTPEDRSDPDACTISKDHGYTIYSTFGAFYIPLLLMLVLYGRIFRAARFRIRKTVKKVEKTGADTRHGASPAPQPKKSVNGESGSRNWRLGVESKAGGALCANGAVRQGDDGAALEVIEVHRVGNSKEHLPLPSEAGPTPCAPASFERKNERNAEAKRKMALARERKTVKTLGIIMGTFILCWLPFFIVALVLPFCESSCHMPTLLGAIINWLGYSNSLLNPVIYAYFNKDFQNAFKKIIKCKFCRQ
Kind of test: cAMP accumulation assay, 5-HT1A function. It is filed as cell-based. The conditions noted are these: for EC50: cells marked EC50 (agonist); for Emax: in brackets after EC50 or IC50, read-out: 5-HT1A Function cAMP (Emax); for IC50: cells marked IC50 (antagonist), read-out: 5-HT1A Function cAMP IC50.

The target of another test is T2, serotonin transporter (Rattus norvegicus, UniProt P31652).
T2 construct: displace ^3H-paroxetine from male rat cortical membranes; from tissue; host or cells: male rat cortical membranes
As to the kind of experiment: 5-HT transporter affinity: displacement of 3H-paroxetine from male rat cortical membranes. Type of test: binding. The conditions noted are these: displacement of 3H-paroxetine; male rat cortical membranes; read-out: 5-HT Transporter Affinity Ki. (In general: Displacement assays read how much labelled ligand stays bound in the presence of the test substance.)

Test [2] deals with T3, cloned human 5-HT1A receptors (Homo sapiens, UniProt P08908).
T3 construct: expressed in transfected cells
T3 sequence (P08908 1-422): T1 sequence (P08908 1-422)
As to the kind of experiment: 35S-GTPγS binding assay, 5-HT1A function. Type of test: biochemical. The conditions noted are these: for EC50: agonist potency; for IC50: antagonist potency, reversal of 8-OH-DPAT, read-out: 5-HT1A Function GTPγS IC50.

The target in test [3] is T1, 5-HT1A receptor. As to the kind of experiment: 5-HT1A receptor affinity: displacement of [3H] 8-OH-DPAT. It is filed as binding. More on the design: expressed in transfected cells. The conditions noted are these: displacement of [3H] 8-OH-DPAT; CHO cells stably transfected with human 5-HT1A receptors; read-out: 5-HT1A Receptor Affinity Ki.
Where [4] appears, read: maximum inhibitory effect, in brackets after IC50, read-out: 5-HT1A Function GTPγS (Imax).
The mark [5] stands for this setting: maximum stimulatory effect, in brackets after EC50, read-out: 5-HT1A Function GTPγS (Emax).

T2 sequence (P31652 whole entry): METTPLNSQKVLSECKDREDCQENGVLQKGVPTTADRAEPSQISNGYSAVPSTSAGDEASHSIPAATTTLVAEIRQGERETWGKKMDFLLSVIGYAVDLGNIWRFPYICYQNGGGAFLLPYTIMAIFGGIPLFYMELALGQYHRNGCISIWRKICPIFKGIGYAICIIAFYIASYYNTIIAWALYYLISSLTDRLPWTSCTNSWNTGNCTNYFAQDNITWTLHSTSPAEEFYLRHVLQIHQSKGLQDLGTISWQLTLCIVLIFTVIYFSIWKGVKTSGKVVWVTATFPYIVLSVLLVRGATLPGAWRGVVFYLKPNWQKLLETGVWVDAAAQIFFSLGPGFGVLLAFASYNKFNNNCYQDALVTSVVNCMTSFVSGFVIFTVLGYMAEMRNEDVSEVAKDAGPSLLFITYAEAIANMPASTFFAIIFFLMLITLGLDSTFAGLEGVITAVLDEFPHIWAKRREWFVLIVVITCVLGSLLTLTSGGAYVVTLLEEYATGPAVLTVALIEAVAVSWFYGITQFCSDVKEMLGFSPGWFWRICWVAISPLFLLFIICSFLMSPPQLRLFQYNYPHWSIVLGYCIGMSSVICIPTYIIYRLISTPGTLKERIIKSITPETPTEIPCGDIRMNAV

Usually EC50 stands for the concentration at which the effect is half-maximal. For orientation: Ki means the equilibrium dissociation constant of an inhibitor or competing ligand from its target. The term IC50 denotes the concentration that gives 50% inhibition. In the case of `CCN(CCCc1c[nH]c2c(Cl)cccc12)C1COc2c(F)ccc(C(N)=O)c2C1` (stereo not drawn) [Compound 110, 3-[[3-(7-chloro-1H-indol-3-yl)propyl](ethyl)amino]-8-fluorochromane-5-carboxamide], the figures for the EC50 (at 5-HT1A receptor [1]; in test [2]) were 36.4 nM and 244 nM, respectively. For the same molecule, the Emax was determined as 75% on 5-HT1A receptor [1], 59% in test [2] (setting [4]) and 61% in test [2] (setting [5]). Further, the Ki at serotonin transporter came out at 4.59 nM; at 5-HT1A receptor [3], 6.45 nM. In test [2], the IC50 was found to be 196 nM.
With `NC(=O)c1ccc(F)c2c1CC(N(CCCc1c[nH]c3c(Cl)cccc13)C1CCC1)CO2` (stereo not drawn) [Compound 111, 3-[[3-(7-chloro-1H-indol-3-yl)propyl](cyclobutyl)amino]-8-fluorochromane-5-carboxamide], the values for the IC50 (on 5-HT1A receptor [1]; in test [2]) were 1060 nM and 1600 nM, respectively. For the same molecule, the Emax came to 0% at 5-HT1A receptor [1] and 100% in test [2] (setting [4]). In addition, the Ki on serotonin transporter is 66 nM; on 5-HT1A receptor [3], 26 nM.
For the molecule `NC(=O)c1ccc(F)c2c1CC(N(CCCc1c[nH]c3c(Cl)cccc13)CC1CC1)CO2` (stereo not drawn) [Compound 112, 3-[[3-(7-chloro-1H-indol-3-yl)propyl](cyclopropylmethyl)amino]-8-fluorochromane-5-carboxamide], the results for the IC50 (at 5-HT1A receptor [1]; in test [2]) were 56.8 nM and 241 nM, respectively. Moreover, the figures for the Emax (on 5-HT1A receptor [1]; in test [2] (setting [4])) were 0% and 100%, respectively. For the same molecule, the Ki was 61 nM at serotonin transporter and 0.74 nM on 5-HT1A receptor [3].
Take `CCCN(CCCc1c[nH]c2c(Cl)cccc12)C1COc2c(F)ccc(C(N)=O)c2C1` (stereo not drawn) [Compound 113, 3-[[3-(7-chloro-1H-indol-3-yl)propyl](propyl)amino]-8-fluorochromane-5-carboxamide]: the EC50 on 5-HT1A receptor [1] is 16 nM; in test [2], 87.2 nM. For the same molecule, the Emax on 5-HT1A receptor [1] came to 91%; in test [2] (setting [5]), 56%. Further, the Ki on serotonin transporter came to 51 nM; at 5-HT1A receptor [3], 2.02 nM.
As for `NC(=O)c1ccc(F)c2c1CC(NCCCc1c[nH]c3ccc(Cl)cc13)CO2` (stereo not drawn) [Compound 114, 3-{[3-(5-chloro-1H-indol-3-yl)propyl]amino}-8-fluorochromane-5-carboxamide], the EC50 at 5-HT1A receptor [1] amounted to 244 nM; in test [2], 1320 nM. In addition, the Emax stood at 67.5% at 5-HT1A receptor [1] and 64% in test [2] (setting [5]). Also, the results for the Ki on serotonin transporter and at 5-HT1A receptor [3] were 69.5 nM and 97 nM, respectively.
On to `CCN(CCCc1c[nH]c2ccc(Cl)cc12)C1COc2c(F)ccc(C(N)=O)c2C1` (stereo not drawn) [Compound 115, 3-[[3-(5-chloro-1H-indol-3-yl)propyl](ethyl)amino]-8-fluorochromane-5-carboxamide], for which the 50% effective concentration (EC50) is 46 nM on 5-HT1A receptor [1] and 52.2 nM in test [2]. Also, the figures for the Emax (on 5-HT1A receptor [1]; in test [2] (setting [4]); in test [2] (setting [5])) were 77%, 72% and 38%, respectively. For the same molecule, the Ki on serotonin transporter is 21.4 nM; on 5-HT1A receptor [3] it was 6.04 nM. Moreover, the concentration for half-maximal inhibition (IC50) in test [2] was 1990 nM.
Regarding `CCCN(CCCc1c[nH]c2ccc(Cl)cc12)C1COc2c(F)ccc(C(N)=O)c2C1` (stereo not drawn) [Compound 116, 3-[[3-(5-chloro-1H-indol-3-yl)propyl](propyl)amino]-8-fluorochromane-5-carboxamide], the EC50 on 5-HT1A receptor [1] was 7.82 nM; in test [2], 61.2 nM. Moreover, the Emax at 5-HT1A receptor [1] came to 80%; in test [2] (setting [4]), 45%; in test [2] (setting [5]) it was 50%. Also, the Ki at serotonin transporter was determined as 151 nM; at 5-HT1A receptor [3], 1.45 nM. In test [2], the IC50 was 843 nM.
For `NC(=O)c1ccc(F)c2c1CC(N(CCCc1c[nH]c3ccc(Cl)cc13)C1CCC1)CO2` (stereo not drawn) [Compound 117, 3-[[3-(5-chloro-1H-indol-3-yl)propyl](cyclobutyl)amino]-8-fluorochromane-5-carboxamide], the IC50 at 5-HT1A receptor [1] worked out at 272 nM; in test [2], 735 nM. The Emax on 5-HT1A receptor [1] was determined as 0%; in test [2] (setting [4]), 100%. Moreover, the Ki at serotonin transporter was found to be 75.5 nM; at 5-HT1A receptor [3], 3.98 nM.
Turning to `NC(=O)c1ccc(F)c2c1CC(N(CCCc1c[nH]c3ccc(Cl)cc13)CC1CC1)CO2` (stereo not drawn) [Compound 118, 3-[[3-(5-chloro-1H-indol-3-yl)propyl](cyclopropylmethyl)amino]-8-fluorochromane-5-carboxamide], the values for the IC50 (at 5-HT1A receptor [1]; in test [2]) were 168 nM and 134 nM, respectively. Also, the Emax came to 0% at 5-HT1A receptor [1] and 69% in test [2] (setting [4]). Further, the values for the Ki on serotonin transporter and on 5-HT1A receptor [3] were 41.4 nM and 1.49 nM, respectively.
As for `NC(=O)c1ccc(F)c2c1OCC(N(CCCCc1c[nH]c3ccc(F)cc13)CC1CC1)C2` (stereo not drawn) [Compound 125, 3-{(cyclopropylmethyl)[4-(5-fluoro-1H-indol-3-yl)butyl]amino}-5-fluorochromane-8-carboxamide], the concentration for a half-maximal effect (EC50) on 5-HT1A receptor [1] was 367 nM; in test [2], 2800 nM. The Emax at 5-HT1A receptor [1] amounted to 64%; in test [2] (setting [5]) it was 63%. The Ki worked out at 6.8 nM on serotonin transporter and 86.5 nM on 5-HT1A receptor [3].
For the molecule `CCN(CCCCc1c[nH]c2ccc(F)cc12)C1COc2c(C(N)=O)ccc(F)c2C1` (stereo not drawn) [Compound 127, 3-{ethyl[4-(5-fluoro-1H-indol-3-yl)butyl]amino}-5-fluorochromane-8-carboxamide], the EC50 is 781 nM at 5-HT1A receptor [1] and 1290 nM in test [2]. For the same molecule, the results for the Emax (on 5-HT1A receptor [1]; in test [2] (setting [5])) were 81.5% and 50%, respectively. For the same molecule, the Ki at serotonin transporter stood at 9.9 nM; on 5-HT1A receptor [3] it was 326 nM.
As for `CCCN(CCCc1c[nH]c2c(F)cc(F)cc12)C1COc2c(C(N)=O)ccc(F)c2C1` (stereo not drawn) [Compound 129, 3-[[3-(5,7-difluoro-1H-indol-3-yl)propyl](propyl)amino]-5-fluorochromane-8-carboxamide], the EC50 worked out at 707 nM at 5-HT1A receptor [1] and 9330 nM in test [2]. The Emax turned out to be 75.5% on 5-HT1A receptor [1] and 100% in test [2] (setting [5]). The inhibition constant (Ki) was determined as 6.8 nM at serotonin transporter and 170 nM on 5-HT1A receptor [3].
Take `NC(=O)c1ccc(F)c2c1OCC(N(CCCc1c[nH]c3c(F)cc(F)cc13)CC1CC1)C2` (stereo not drawn) [Compound 130, 3-{(cyclopropylmethyl)[3-(5,7-difluoro-1H-indol-3-yl)propyl]amino}-5-fluorochromane-8-carboxamide]: the EC50 on 5-HT1A receptor [1] is 14.8 nM; in test [2], 788 nM. The results for the Emax (at 5-HT1A receptor [1]; in test [2] (setting [5])) were 72% and 39%, respectively. The results for the Ki on serotonin transporter and at 5-HT1A receptor [3] were 166 nM and 74.3 nM, respectively.
For the molecule `CCN(CCCc1c[nH]c2c(F)cc(F)cc12)C1COc2c(C(N)=O)ccc(F)c2C1` (stereo not drawn) [Compound 132, 3-[[3-(5,7-difluoro-1H-indol-3-yl)propyl](ethyl)amino]-5-fluorochromane-8-carboxamide], the EC50 on 5-HT1A receptor [1] came to 112 nM; in test [2], 2210 nM. Also, the Emax at 5-HT1A receptor [1] is 63%; in test [2] (setting [5]), 98%. Further, the Ki on serotonin transporter was 50.3 nM; on 5-HT1A receptor [3], 95.6 nM.
With `NC(=O)c1cccc2c1C[C@H](NCCCc1c[nH]c3ccc(F)cc13)CO2` [Compound 133a, (3S)-3-{[3-(5-fluoro-1H-indol-3-yl)propyl]amino}chromane-5-carboxamide], the results for the EC50 (on 5-HT1A receptor [1]; in test [2]) were 128 nM and 5000 nM, respectively. Besides, the Emax at 5-HT1A receptor [1] was 53%; in test [2] (setting [5]), 60%. For the same molecule, the Ki at serotonin transporter worked out at 28.5 nM; at 5-HT1A receptor [3], 51.8 nM.
